Results from patent publication US11634443B2, “Treprostinil prodrugs” (United Therapeutics Corporation, priority 2019, dated 2023).
Like-named read-outs stand apart in the source and are kept apart here. Values belong to the compound of their own block, whether it stands above or below them.

Tests used:
[1] = Measured solubility at pH 6.5; format: physicochemical
[2] = Plasma stability and formation of treprostinil, human plasma; format: in vitro ADME; conditions: for Formation of Treprostinil, Concentration: prodrug dosed at 1 μM
Description: (§1) Studies were carried out in mixed-gender human plasma male Sprague-Dawley rat plasma, and male Beagle dog plasma. All plasma was obtained from Bioreclamation and collected on K2EDTA. Plasma was adjusted to pH 7.4 prior to initiating the experiments. DMSO stocks were first prepared for the test articles. […] The vials were kept in a benchtop Thermomixer® for the duration of the experiment. […] Samples were stored at 4° C. until the end of the experiment. After the final time point was sampled, the plate was mixed and then centrifuged at 3000 rpm for 10 minutes.

[3] = biological target: T1, prostaglandin E2 (PGE2) receptor 2 (EP2) (Homo sapiens, UniProt P43116); test: EP2 receptor cAMP assay (agonist mode); format: cell-based; conditions: cAMP, cells overexpressing human EP2
T1 construct: expressed in transfected cells; host or cells: HEK293T

[4] = Plasma stability and formation of treprostinil, dog plasma; format: in vitro ADME; conditions: for Formation of Treprostinil, Concentration: prodrug dosed at 1 μM
Description: as §1

[5] = Stability and formation of treprostinil in dog cryopreserved hepatocytes
Description: (§2) Mixed-gender human cryopreserved hepatocytes, male Sprague-Dawley rat cryopreserved hepatocytes, and male Beagle dog cryopreserved hepatocytes were purchased from XenoTech. The hepatocytes were thawed and prepared according to the vendor's instructions, pooled into Krebs Henseleit buffer (KHB, pH 7.4), and kept on ice prior to the experiments. […] The final DMSO content in the incubation mixture was ≤0.1%. […] Aliquots of the test article were withdrawn (n=1) at 0, 15, 30, 60, and 120 minutes. […] Aliquots of 7-HC were withdrawn (n=1) at 0 and 15 minutes. The reaction was immediately terminated by adding two volumes of ice-cold acetonitrile (ACN) to the test article samples and three volumes of ACN containing internal standard to the positive control samples.

[6] = Plasma stability and formation of treprostinil, rat plasma; format: in vitro ADME; conditions: for Formation of Treprostinil, Concentration: prodrug dosed at 1 μM
Description: as §1

[7] = Stability and formation of treprostinil in human cryopreserved hepatocytes
Description: as §2

[8] = biological target: T2, prostaglandin I2 (PGI2) receptor (IP) (Homo sapiens, UniProt P43119); test: IP receptor cAMP assay (agonist mode); format: cell-based; conditions: for Activity, IP Relative to Tre: relative to treprostinil EC50 values, image character = too high to realistically calculate
T2 construct: expressed in transfected cells; host or cells: CHO-K1

[9] = Hydrolysis of treprostinil prodrugs to treprostinil at pH 6, 7 and 8 and 40 C; format: physicochemical
Excerpt: Tables 26, 27 and 28 present data for hydrolysis of selected treprostinil prodrugs at pH 6, 7 and 8, respectively, and 40 C.

[10] = Stability and formation of treprostinil in rat cryopreserved hepatocytes
Description: as §2

[11] = Stability and formation of treprostinil in human subcutaneous skin homogenate; conditions: pooled human skin homogenate, 1 μM
[12] = biological target: T3, prostaglandin D2 (PGD2) receptor 1 (DP1) (Homo sapiens, UniProt Q13258); test: DP1 receptor cAMP assay (agonist mode); format: cell-based; conditions: for Activity, DP1 Relative to Tre: relative to treprostinil EC50 values, * partial agonists or ambiguous dose-response curves; for Activity at the DP1 receptor compared to treprostinil: cAMP, cells overexpressing human DP1
T3 construct: expressed in transfected cells; host or cells: HEK293T
T3 sequence (Q13258 1-359): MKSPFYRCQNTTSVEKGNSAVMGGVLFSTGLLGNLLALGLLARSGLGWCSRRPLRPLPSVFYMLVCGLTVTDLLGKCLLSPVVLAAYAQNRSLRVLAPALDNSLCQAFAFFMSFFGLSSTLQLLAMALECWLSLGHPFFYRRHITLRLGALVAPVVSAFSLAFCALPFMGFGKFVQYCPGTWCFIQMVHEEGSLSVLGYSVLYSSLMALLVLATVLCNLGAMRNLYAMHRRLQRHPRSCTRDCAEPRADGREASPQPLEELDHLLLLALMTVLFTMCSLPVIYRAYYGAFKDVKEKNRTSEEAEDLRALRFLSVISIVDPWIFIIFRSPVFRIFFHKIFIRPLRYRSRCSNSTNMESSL

[13] = Stability and formation of treprostinil in simulated intestinal fluid; format: in vitro ADME; conditions: for Formation of Treprostinil, Concentration: SIF, prodrug dosed at 1 μM
[14] = microsomes
[15] = microsomes; remark: listed apart in the source
[16] = cAMP, cells overexpressing human IP
[17] = Table 24, image character = too high to realistically calculate

T2 sequence (P43119 whole entry): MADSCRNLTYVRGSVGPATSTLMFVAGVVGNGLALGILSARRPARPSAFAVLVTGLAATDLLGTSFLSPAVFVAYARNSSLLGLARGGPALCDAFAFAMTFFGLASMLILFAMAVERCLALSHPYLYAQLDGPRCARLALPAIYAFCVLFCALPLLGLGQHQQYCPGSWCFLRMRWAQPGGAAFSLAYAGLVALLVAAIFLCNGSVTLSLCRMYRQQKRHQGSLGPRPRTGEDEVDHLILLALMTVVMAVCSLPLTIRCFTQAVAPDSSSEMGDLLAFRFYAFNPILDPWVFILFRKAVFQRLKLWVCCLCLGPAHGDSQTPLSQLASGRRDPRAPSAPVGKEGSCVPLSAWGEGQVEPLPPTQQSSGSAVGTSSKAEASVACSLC
T1 sequence (P43116 whole entry): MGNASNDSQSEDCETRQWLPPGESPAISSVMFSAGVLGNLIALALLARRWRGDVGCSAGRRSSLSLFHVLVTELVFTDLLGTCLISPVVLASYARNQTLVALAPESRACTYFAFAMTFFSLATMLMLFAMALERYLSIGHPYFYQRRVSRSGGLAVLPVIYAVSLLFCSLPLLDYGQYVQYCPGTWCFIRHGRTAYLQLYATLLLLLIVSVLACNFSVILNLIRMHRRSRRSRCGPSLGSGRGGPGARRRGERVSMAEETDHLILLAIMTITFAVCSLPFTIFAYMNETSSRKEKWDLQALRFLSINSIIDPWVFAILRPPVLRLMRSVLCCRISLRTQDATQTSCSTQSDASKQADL

Compound: treprostinil diphosphate [Prodrug LXXIII]
- Formation of Treprostinil, Concentration ([2]; 0 min): 0 µM
- Formation of Treprostinil, Concentration ([2]; 15 min): 0 µM
- Formation of Treprostinil, Concentration ([2]; 30 min): 0 µM
- Formation of Treprostinil, Concentration ([2]; 120 min): 0 µM
- Formation of Treprostinil, Concentration [2]: 0 µM
- Activity at the EP2 receptor compared to treprostinil [3]: inactive
- Formation of Treprostinil, Concentration ([4]; 0 min): 0 µM
- Formation of Treprostinil, Concentration ([4]; 15 min): 0 µM
- Formation of Treprostinil, Concentration ([4]; 30 min): 0 µM
- Formation of Treprostinil, Concentration ([4]; 120 min): 0 µM
- Formation of Treprostinil, Concentration [4]: 0 µM
- Treprostinil Concentration, 15 min [5]: 0.0506 µM
- Formation of Treprostinil, Concentration ([6]; 0 min): 0 µM
- Formation of Treprostinil, Concentration ([6]; 60 mm): 0 µM
- Formation of Treprostinil, Concentration ([6]; 15 min): 0 µM
- Formation of Treprostinil, Concentration ([6]; 30 min): 0 µM
- Formation of Treprostinil, Concentration ([6]; 120 min): 0 µM
- Treprostinil Concentration, 15 min [7]: 0.0163 µM
- Activity, IP Relative to Tre ([8]; Table 24, * partial agonists or ambiguous dose-response curves): 208x
- Activity, IP Relative to Tre ([8]; Table 25): 208x
- Fold less active than treprostinil at the IP receptor [8, 16]: approximately 200 fold
- Hydrolysis of prodrug to treprostinil, % Area, t = 1 week ([9]; pH 6, 40 C): 0.00 % Area
- Hydrolysis of prodrug to treprostinil, % Area, t = 2 weeks ([9]; pH 6, 40 C): 0.00 % Area
- Hydrolysis of prodrug to treprostinil, % Area, t = 3 weeks ([9]; pH 6, 40 C): 0.00 % Area
- Hydrolysis of prodrug to treprostinil, % Area, t = 1 week ([9]; pH 7, 40 C): 0.00 % Area
- Hydrolysis of prodrug to treprostinil, % Area, t = 2 weeks ([9]; pH 7, 40 C): 0.00 % Area
- Hydrolysis of prodrug to treprostinil, % Area, t = 3 weeks ([9]; pH 7, 40 C): 0.00 % Area
- Hydrolysis of prodrug to treprostinil, % Area, t = 1 week ([9]; pH 8, 40 C): 0.00 % Area
- Hydrolysis of prodrug to treprostinil, % Area, t = 2 weeks ([9]; pH 8, 40 C): 0.00 % Area
- Hydrolysis of prodrug to treprostinil, % Area, t = 3 weeks ([9]; pH 8, 40 C): 0.00 % Area
- Treprostinil Concentration, 15 min [10]: 0.0097 µM
- Percent Remaining (Avg, n = 3) ([11]; 0 min): 100%
- Percent Remaining (Avg, n = 3) ([11]; 30 min): 86.2%
- Percent Remaining (Avg, n = 3) ([11]; 60 min): 71.2%
- Percent Remaining (Avg, n = 3) ([11]; 120 min): 64.0%
- Activity, DP1 Relative to Tre [12, 17]: 217x
- Activity, DP1 Relative to Tre ([12]; Table 25): 217x
- Activity at the DP1 receptor compared to treprostinil [12]: several hundred-fold less active

Compound: treprostinil dipropionate [Prodrug LXX]
- Percent Remaining ([2]; 0 min, 1 μM, 37° C.): 100%
- Formation of Treprostinil, Concentration ([2]; 0 min): 0 µM
- Half-Life ([2]; 1 μM, 37° C.): >120 min
- Percent Remaining ([2]; 15 min, 1 μM, 37° C.): 92.4%
- Formation of Treprostinil, Concentration ([2]; 15 min): 0 µM
- Percent Remaining ([2]; 30 min, 1 μM, 37° C.): 102%
- Formation of Treprostinil, Concentration ([2]; 30 min): 0 µM
- Percent Remaining ([2]; 60 min, 1 μM, 37° C.): 93.3%
- Percent Remaining ([2]; 120 min, 1 μM, 37° C.): 103%
- Formation of Treprostinil, Concentration ([2]; 120 min): 0 µM
- Formation of Treprostinil, Concentration [2]: 0 µM
- Activity at the EP2 receptor compared to treprostinil [3]: inactive
- Percent Remaining ([4]; 0 min, 1 μM, 37° C.): 100%
- Formation of Treprostinil, Concentration ([4]; 0 min): 0 µM
- Half-Life ([4]; 1 μM, 37° C.): >120 min
- Percent Remaining ([4]; 15 min, 1 μM, 37° C.): 103%
- Formation of Treprostinil, Concentration ([4]; 15 min): 0 µM
- Percent Remaining ([4]; 30 min, 1 μM, 37° C.): 116%
- Formation of Treprostinil, Concentration ([4]; 30 min): 0 µM
- Percent Remaining ([4]; 60 min, 1 μM, 37° C.): 97.4%
- Percent Remaining ([4]; 120 min, 1 μM, 37° C.): 91.4%
- Formation of Treprostinil, Concentration ([4]; 120 min): 0 µM
- Formation of Treprostinil, Concentration [4]: 0 µM
- Percent Remaining ([13]; SIF pH 6.8, 0 min, 1 μM, 37° C.): 100%
- Half-Life ([13]; SIF pH 6.8, 1 μM, 37° C.): >120 min
- Percent Remaining ([13]; SIF pH 6.8, 15 min, 1 μM, 37° C.): 97.2%
- Percent Remaining ([13]; SIF pH 6.8, 30 min, 1 μM, 37° C.): 104%
- Percent Remaining ([13]; SIF pH 6.8, 60 min, 1 μM, 37° C.): 93.6%
- Percent Remaining ([13]; SIF pH 6.8, 120 min, 1 μM, 37° C.): 86.2%
- Formation of Treprostinil, Concentration ([13]; 0 min): 0 µM
- Formation of Treprostinil, Concentration ([13]; 15 min): 0 µM
- Formation of Treprostinil, Concentration ([13]; 30 min): 0 µM
- Formation of Treprostinil, Concentration ([13]; 60 min): 0.00415 µM
- Formation of Treprostinil, Concentration ([13]; 120 min): 0.0720 µM
- Half-Life [14]: <10 min
- Treprostinil Concentration, 0 min [5]: 0.0959 µM
- Treprostinil Concentration, 15 min [5]: 0.736 µM
- Treprostinil Concentration, 30 min [5]: 0.597 µM
- Treprostinil Concentration, 60 min [5]: 0.511 µM
- Treprostinil Concentration, 120 min [5]: 0.445 µM
- CLint ([5]; hepatocytes): >0.0308 mL/min/mg protein
- Half-Life ([5]; hepatocytes): <15 min
- Percent Remaining ([6]; 0 min, 1 μM, 37° C.): 100%
- Formation of Treprostinil, Concentration ([6]; 0 min): 0 µM
- Half-Life ([6]; 1 μM, 37° C.): 102 min
- Formation of Treprostinil, Concentration ([6]; 60 mm): 0.0331 µM
- Percent Remaining ([6]; 15 min, 1 μM, 37° C.): 98.3%
- Formation of Treprostinil, Concentration ([6]; 15 min): 0.00392 µM
- Percent Remaining ([6]; 30 min, 1 μM, 37° C.): 80.3%
- Formation of Treprostinil, Concentration ([6]; 30 min): 0.0101 µM
- Percent Remaining ([6]; 60 min, 1 μM, 37° C.): 69.3%
- Percent Remaining ([6]; 120 min, 1 μM, 37° C.): 45.0%
- Formation of Treprostinil, Concentration ([6]; 120 min): 0.0768 µM
- Treprostinil Concentration, 0 min [7]: 0.00542 µM
- Treprostinil Concentration, 15 min [7]: 0.638 µM
- Treprostinil Concentration, 30 min [7]: 0.556 µM
- Treprostinil Concentration, 60 min [7]: 0.482 µM
- Treprostinil Concentration, 120 min [7]: 0.413 µM
- Activity at the IP receptor compared to treprostinil [8, 16]: inactive
- Hydrolysis of prodrug to treprostinil, % Area, t = 1 week ([9]; pH 6, 40 C): 0.00 % Area
- Hydrolysis of prodrug to treprostinil, % Area, t = 2 weeks ([9]; pH 6, 40 C): 0.00 % Area
- Hydrolysis of prodrug to treprostinil, % Area, t = 3 weeks ([9]; pH 6, 40 C): 0.00 % Area
- Hydrolysis of prodrug to treprostinil, % Area, t = 1 week ([9]; pH 7, 40 C): 0.00 % Area
- Hydrolysis of prodrug to treprostinil, % Area, t = 2 weeks ([9]; pH 7, 40 C): 0.00 % Area
- Hydrolysis of prodrug to treprostinil, % Area, t = 3 weeks ([9]; pH 7, 40 C): 0.00 % Area
- Hydrolysis of prodrug to treprostinil, % Area, t = 1 week ([9]; pH 8, 40 C): 0.00 % Area
- Hydrolysis of prodrug to treprostinil, % Area, t = 2 weeks ([9]; pH 8, 40 C): 0.00 % Area
- Hydrolysis of prodrug to treprostinil, % Area, t = 3 weeks ([9]; pH 8, 40 C): 0.00 % Area
- Treprostinil Concentration, 0 min [10]: 0 µM
- Treprostinil Concentration, 15 min [10]: 0.606 µM
- Treprostinil Concentration, 30 min [10]: 0.579 µM
- Treprostinil Concentration, 60 min [10]: 0.484 µM
- Treprostinil Concentration, 120 min [10]: 0.405 µM
- Half-Life [15]: <10 min
- EC50 Fold Different from Treprostinil, DP1 Receptor ([12]; Table 20, agonist mode, NC = too inactive to realistically calculate, * partial agonists or odd dose-response curves): 410x*
- Activity, DP1 Relative to Tre [12, 17]: 410x
- Activity, DP1 Relative to Tre ([12]; Table 25): 410x
- Activity at the DP1 receptor compared to treprostinil [12]: several hundred-fold less active

Other lines, results leading:

- Measured Sol [1]: > 10 mg/mL
Compound: CCCCC[C@@H](CC[C@@H]1[C@H]2Cc3cccc(OCC(=O)O)c3C[C@H]2C[C@H]1O)OP(=O)(O)O [VI]

- Measured Sol [1]: 10 mg/mL
Compound: CCCCC[C@@H](CC[C@@H]1[C@H]2Cc3cccc(OCC(=O)O)c3C[C@H]2C[C@H]1O)OC(=O)OC(C)C [XVII]

- Measured Sol [1]: 10 mg/mL
Compound: CCCCC[C@@H](CC[C@@H]1[C@H]2Cc3cccc(OCC(=O)O)c3C[C@H]2C[C@H]1O)OC(=O)OCC [XVI]
